Laboratory results reported in patent US5330992A, “1-cyclopropyl-4-pyridyl-quinolinones” (priority 1992, dated 1994).

Assays:
[1] = In vivo antitumor assay, MX1(src); parameters: species or system human tumor in athymic NCR-nu mice; conditions: mouse, in vivo, drug route ip, qd 1,5,9
From the text: (§1) Mice: Inbred: C3H/He and NCR-nu; and Hybrids: B6D2Fl (C57BL/6 females X DBA/2 males, CD2Fl (Balb/c females X DBS/2 males) and B6x C3fl (C57BL/6 x C3H) were bred at Wayne State University from strained obtained from the Frederick Cancer Research Facility, Frederick, Md. or purchased from commercial suppliers.
(§2) Tumors: Murine Tumor: P388 and an adriamycin-resistant (ADR) subline P388/ADR leukemia and the following transplantable solid tumors of mice were used for in Vivo testing: B16 melanoma (B16), pancreatic ductal adenocarcinoma No. 03 (Panc 03), colon adenocarcinoma No. 38 (colo 38), mammary ductal adenocarcinoma No. 16/C (Mam16) and an adriamycin-resistantsubline Mam16C/ADR. Human tumor: A single human tumor, mammary carcinoma MX-1 (MX1) was used for in vivo testing. All tumors are in the Developmental Therapeutics Program frozen tumor respository, maintained by the Biological Testing Branch, Frederick Md. Each has a detailed description, code identification number, and list of references at the National Tumor Repository. Murine tumors were maintained in the mouse strain of origin and were transplanted in the appropriate F1 hydrid (or the strain of origin) for therapy trials. Human mammary carcinoma MX-1 MX1) was maintained as a subcutaneous implant in either athymic Swiss (Cr: NIH(S)-nu) or athymic random bred (NCR-nu) mice and transplanted in NCR-nu for therapy trials.
(§3) For P388 and P388/ADR leukemia studies the tumor cells were implanted either IP or intravenously (IV) on day zero and treatment was started on day one. For B16 melanoma (B16) studies, the tumor cells were implanted IP on day zero and treatment was started on day one. Tirered controls were also included to facilitate the calculation of tumor cell kill. For mammary carcinoma MX-1 studies, tumors were implanted with 1) subcutaneously (sc) (14-mg fragment of s.c. donor tumor) in the axillary region or 2) under the subrenal capsule (src) (10×10×10 ocular micrometer unit fragment of s.c. donor tumor). Treatment started on the day after subrenal capsule tumor implant or when the subcutaneous tumor implant had reached 100-700 mg.
(§4) Quantitative end points used assess antitumor activity included % Increased Life Span (% ILS), Tumor Cell Kill (Log10 kill), and Tumor Growth Inhibition (T/C). Long Term Survivors (45 or 60 day) were excluded from calculations of % ILS and Tumor Cell Kill.
(§5) Tumors were measured with a caliper once or twice weekly (as needed) until either tumors exceeded 1600 mg or cure was assured. Tumor weights were estimated from two-dimensional measurements: Tumor Weight (mg)=(a×b^2) / 2, where a and b are the tumor length and width (nun) respectively. Measurements were carried out simultaneously in both treatment and control groups. When the control group tumors reached approximately 750-1500 mg in size (median of group), the median tumor weight of each group was determined (including zeros). The T/C value in percent is an indiation of antitumor effectiveness. The % T/C was calculated from the following formula for solid murine tumor models: [formula] where T and C are median tumor weights of the treatment and control groups, respectively. A T/C equal to or less than 42% is considered significant antitumor activity. A T/C value <10% is indicative of a high degree of antitumor activity and is the level used by National Cancer Institute to justify further development if other requirements are met (termed DN-2 level activity). By convention the T/C value for the mammary carcinoma MX-1 models is calculated by the parameter of change in tumor weight. The % T/C was calculated from the following formula for MX-1 models [formula] where ΔT and ΔC are the change in mean tumor weight of the test and control groups, respectively, and T (initial) is the initial mean tumor weight of the test group. […] A reproducible % T/C ≤10 is considered significant activity.

[2] = system: human mammary carcinoma MX-1 (MX1); experiment: In vivo antitumor assay, MX1(src); parameters: species or system human tumor in athymic NCR-nu mice; conditions: drug route ip, qd 1,5,9, change in mean tumor weight
From the text: as §1, §2, §3, §4, §5

[3] = In vivo antitumor assay, Colo38(sc); parameters: species or system mouse; conditions: mouse, in vivo, drug route iv, Ex 26 qd 3-5 bid 6-11, Ex 30 and 33 qd 3-11
From the text: as §1, §2
(§6) Chemotherapy: For pancreatic ductal adenocarcinoma No. 3, colon adenocarcinoma No. 38 (colo38), lung carcinoma No. 12 (LC12) and both adriamycin-sensitive (RP) and -resistant ADR) mammary ductal adenocarcinoma No. 16 (Mam16) tumors, the following methods were used to help ensure a more uniform tumor burden per mouse (thus reducing the requirement for greater numbers of mice per group), bilateral tumor implants were used. The animals necessary to begin an experiment were pooled, implanted bilaterally s.c. on day zero with 30-60-mg tumor fragments using a 12-gauge trocar, and again pooled before randomization to the various treatment and control groups. Chemotherapy was started within three days after tumor implantation while the number of cells per mouse was relatively small (1×10^7 […]).
as §4, §5

[4] = system: colon adenocarcinoma No. 38 (colo 38); experiment: In vivo antitumor assay, Colo38(sc); parameters: species or system mouse; conditions: drug route iv, Ex 26 qd 3-5 bid 6-11, Ex 30 and 33 qd 3-11
From the text: as §1, §2, §6, §4, §5

[5] = In vivo antitumor assay, P388(ip); conditions: mouse, in vivo
From the text: as §1, §2, §3, §4
(§7) Endpoints were calculated as follows: % ILS [formula] where Dt is the median day of death for treated and Dc is the median day of death for control groups. A % ILS ≥20 or ≥25 for P388 and B16 intraperitoneal models, respectively, is indicative of a significant degree of antitumor activity. A % ILS ≥75 or ≥50 for P388 and B16 intraperitoneal models, respectively, is indicative of a high degree of antitumor activity and is the level used by National Cancer Institute to justify further development if other requirements are met (termed DN-2 level activity). Minimum quantitative activity limits for additional P388 models (e.g. P388/ADR and P388, IJV) have not been defined. However, the activity limits specified for the intraperitoneal models may be applied as in the majority of instances these models are found to be signficantly […] challenging.
(§8) The log10 cell kill was calculated from the following formula: [formula] where T-C is the tumor difference in the median day of death between the treated (T) and the control (C) groups and Td is the tumor doubling time (in days), the latter estimated from the best fit straight line from a log-linear growth plot of the control-group tumors in exponential growth. The conversion of the T-C values to log10 cell kill is possible because the Td for tumors regrowing post-treatment approximated the Td values of the tumors in untreated control mice.

[6] = system: P388 leukemia; experiment: In vivo antitumor assay, P388(ip); conditions: P388(ip), qd 1,5,9; for ILS %: increased life span; for LOG KILL: log10 cell kill
From the text: as §1, §2, §3, §4, §7, §8

[7] = P388(ip), drug route ip, qd 1,5,9
[8] = P388(ip), drug route iv, qd 1,5,9

Work on `Cc1cc(-c2c(F)cc3c(=O)c(Cc4c(O)cccc4O)cn(C4CC4)c3c2F)cc(C)n1` [Example 26, 1-Cyclopropyl-6,8-difluoro-7-[2,6-dimethyl-4-pyridinyl]-3-[2,6-dihydroxyphenylmethyl]-1,4-dihydroquinoline-4-one] yielded an MTD [1] of 8.1 mg/kg, a T/C % [2] of 20% and an MTD [3] of 30 mg/kg. The T/C % [4] was 46%, the MTD [5, 7] was 12 mg/kg and the MTD [5, 8] was 15 mg/kg. For the same molecule, the ILS % ([6]; drug route ip) was 100%, the “LOG KILL” value ([6]; drug route ip) was 7.3 and the ILS % ([6]; drug route iv) was 80%. The “LOG KILL” value ([6]; drug route iv) was 5.8.
In the case of `Cc1cc(-c2c(F)cc3c(=O)c(Cc4ccccc4O)cn(C4CC4)c3c2F)cc(C)n1` [Example 30], the MTD [1] is reported as 304 mg/kg, the T/C % [2] is reported as 6% and the MTD [3] is reported as 148 mg/kg. It also gave a T/C % [4] of 42%, an MTD [5, 7] of 456 mg/kg and an MTD [5, 8] of 120 mg/kg. The ILS % ([6]; drug route ip) was 120%, the “LOG KILL” value ([6]; drug route ip) was 8.8 and the ILS % ([6]; drug route iv) was 20%. The “LOG KILL” value ([6]; drug route iv) was 1.5.
With `Cc1cc(-c2c(F)cc3c(=O)c(Cc4ccc(O)cc4O)cn(C4CC4)c3c2F)cc(C)n1` [Example 33] the MTD [1] was 19 mg/kg, the T/C % [2] was 8% and the MTD [3] was 33 mg/kg. The T/C % [4] was over 100%, the MTD ([5]; iv) was 37 mg/kg and the MTD [5, 7] was 19 mg/kg. The ILS % ([6]; drug route ip) was 50%, the “LOG KILL” value ([6]; drug route ip) was 3.6 and the ILS % ([6]; drug route iv) was 50%. For the same molecule, the “LOG KILL” value ([6]; drug route iv) was 3.6.
